The text below walks through data of ChEMBL document CHEMBL1128928, “Synthesis and biological properties of partially modified retro and retro-inverso pseudo peptides of arg-gly-asp (RGD)” (Bioorg Med Chem Lett, 1996).

pIC50: −log10 of the molar value.

What all share (assay type): functional
For experiment [1], the system named is B16. Nature of the experiment: Compound was evaluated for lung metastasis produced by 500 ug/mouse i.v. injection of B16-BL6 melanoma,; Range 19-63.
The species entered for experiment [2] is Homo sapiens. Nature of the experiment: Compound was evaluated for inhibition of ADP-induced human platelet aggregation at concentration 1 mg/mL.
Experiment [3] relates to B16. Nature of the experiment: Compound was evaluated for lung metastasis produced by 500 ug/mouse i.v. injection of B16-BL6 melanoma.; Range 44-154.
The species named for experiment [4] is Homo sapiens. Nature of the experiment: Compound was evaluated for inhibition of ADP-induced human platelet aggregation.
The subject of experiment [5] is B16. Put plainly: Compound was evaluated for lung metastasis produced by 500 ug/mouse i.v. injection of B16-BL6 melanoma. Range 4-36.

As for `N=C(N)NCCC[C@@H](NC(=O)CC(=O)N[C@@H](CC(=O)O)C(=O)O)C(=O)O`, the “No. of lung metastasis” value with B16 [1] turned out to be 38. For the same molecule, the inhibition (as a rule, the percentage by which the read-out fell short of the control) at 1000 µg/mL in the experiment filed under Homo sapiens [2] amounted to 53%.

`N=C(N)NCCC[C@H](N)C(=O)NCC(=O)N[C@@H](CC(=O)O)C(=O)N[C@@H](CO)C(=O)O`: the “No. of lung metastasis” value with B16 [3] came out at 93. In the experiment listed under Homo sapiens [2], this molecule had an inhibition at 1000 µg/mL of 100%.

Turning to `N=C(N)NCCC[C@H](NC(=O)CC(=O)N[C@@H](CC(=O)O)C(=O)O)C(=O)O`, in the experiment filed under Homo sapiens [4], the negative logarithm of the IC50 (pIC50) – broadly, the IC50 on a negative log10 scale, so that one unit is a factor of ten – is 2.62. Also, in the experiment on B16 [5], the “No. of lung metastasis” value amounted to 19. In addition, at 1000 µg/mL the inhibition in the experiment filed under Homo sapiens [2] was 57%.
